From ChEMBL document CHEMBL3046140, “Design, synthesis, antimicrobial, anticancer evaluation, and QSAR studies of 4-(substituted benzylidene-amino)-1,5-dimethyl-2-phenyl-1,2-dihydropyrazol-3-ones” (Med Chem Res, 2012)

Key:
[1] = tested on: Aspergillus niger; test: Fungicidal activity against Aspergillus niger MTCC 8189; assay type: functional
[2] = tested on: Candida albicans; test: Fungicidal activity against Candida albicans MTCC 227; assay type: functional
[3] = tested on: Escherichia coli; test: Bactericidal activity against Escherichia coli MTCC 1652; assay type: functional
[4] = tested on: Staphylococcus aureus; test: Bactericidal activity against Staphylococcus aureus MTCC 2901; assay type: functional
[5] = tested on: Bacillus subtilis; test: Bactericidal activity against Bacillus subtilis MTCC 2063; assay type: functional
[6] = tested on: Aspergillus niger; test: Antifungal activity against Aspergillus niger MTCC 8189 after 7 days by tube dilution method; assay type: functional
[7] = tested on: Candida albicans; test: Antifungal activity against Candida albicans MTCC 227 after 48 hr by tube dilution method; assay type: functional
[8] = tested on: Escherichia coli; test: Antibacterial activity against Escherichia coli MTCC 1652 after 24 hr by tube dilution method; assay type: functional
[9] = tested on: Bacillus subtilis; test: Antibacterial activity against Bacillus subtilis MTCC 2063 after 24 hr by tube dilution method; assay type: functional
[10] = tested on: Staphylococcus aureus; test: Antibacterial activity against Staphylococcus aureus MTCC 2901 after 24 hr by tube dilution method; assay type: functional
[11] = tested on: HT-29; test: Cytotoxicity against Homo sapiens (human) HT-29 cells after 72 hr by MTT assay; assay type: functional, cell-based; details: HT-29, 72 h, read-out: pIC50 (converted)
[12] = tested on: HCT-116; test: Cytotoxicity against Homo sapiens (human) HCT116 cells after 72 hr by MTT assay; assay type: functional, cell-based; details: HCT-116, 72 h, read-out: pIC50 (converted)

Row | Structure (SMILES) | MFC [1] [uM/ml] | MFC [2] [uM/ml] | MBC [3] [uM/ml] | MBC [4] [uM/ml] | MBC [5] [uM/ml] | -logMIC [6] | -logMIC [7] | -logMIC [8] | -logMIC [9] | -logMIC [10] | IC50 [11] [µM] | IC50 [12] [µM]
1 | COc1cccc(/C=N/c2c(C)n(C)n(-c3ccccc3)c2=O)c1 | 0.16 | >0.16 | >0.16 | >0.16 | >0.16 | 1.41 | 1.41 | 1.41 | 1.11 | 1.11 | – | –
2 | OC(Cn1cncn1)(Cn1cncn1)c1ccc(F)cc1F [FLUCONAZOLE] | 0.04 | 0.04 | – | – | – | 2.64 | 2.64 | – | – | – | – | –
3 | O=c1[nH]cc(F)c(=O)[nH]1 [FLUOROURACIL] | – | – | – | – | – | – | – | – | – | – | 85.1 | 45.7
4 | Cc1c(/N=C/c2cccc(O)c2)c(=O)n(-c2ccccc2)n1C | >0.16 | >0.16 | >0.16 | >0.16 | >0.16 | 1.39 | 1.39 | 1.39 | 1.39 | 1.09 | – | –
5 | COc1ccccc1/C=N/c1c(C)n(C)n(-c2ccccc2)c1=O | >0.16 | >0.16 | >0.16 | >0.16 | >0.16 | 1.41 | 1.41 | 1.41 | 1.41 | 1.41 | 70.8 | –
6 | Cc1c(/N=C/c2ccc(Cl)cc2Cl)c(=O)n(-c2ccccc2)n1C | >0.14 | >0.14 | >0.14 | >0.14 | >0.14 | 1.46 | 1.46 | 1.46 | 1.16 | 1.16 | – | –
7 | COc1cc(/C=N/c2c(C)n(C)n(-c3ccccc3)c2=O)cc(OC)c1OC | 0.13 | >0.13 | >0.13 | >0.13 | >0.13 | 1.48 | 1.48 | 1.48 | 1.48 | 1.48 | – | –
8 | Cc1c(/N=C/c2ccccc2Cl)c(=O)n(-c2ccccc2)n1C | >0.15 | >0.15 | >0.15 | >0.15 | >0.15 | 1.42 | 1.42 | 1.42 | 1.42 | 1.12 | – | –
9 | Cc1c(/N=C/c2ccccc2)c(=O)n(-c2ccccc2)n1C | >0.17 | >0.17 | >0.17 | >0.17 | >0.17 | 1.37 | 1.37 | 1.37 | 1.07 | 1.07 | – | –
10 | CCn1cc(C(=O)O)c(=O)c2cc(F)c(N3CCNCC3)cc21 [NORFLOXACIN] | – | – | 0.019 | 0.019 | 0.019 | – | – | 2.61 | 2.61 | 2.61 | – | –
11 | Cc1c(/N=C/c2cccc(Cl)c2)c(=O)n(-c2ccccc2)n1C | >0.15 | >0.15 | >0.15 | >0.15 | >0.15 | 1.42 | 2.02 | 2.02 | 1.72 | 1.72 | – | –
12 | COc1ccc(/C=N/c2c(C)n(C)n(-c3ccccc3)c2=O)cc1OC | >0.14 | >0.14 | >0.14 | >0.14 | >0.14 | 1.45 | 1.45 | 1.45 | 1.15 | 1.15 | – | –
13 | Cc1c(/N=C/c2ccc(Cl)cc2)c(=O)n(-c2ccccc2)n1C | 0.15 | >0.15 | >0.15 | >0.15 | >0.15 | 1.42 | 1.42 | 1.12 | 1.12 | 1.12 | – | –
14 | CCOc1cc(/C=N/c2c(C)n(C)n(-c3ccccc3)c2=O)ccc1O | >0.14 | >0.14 | >0.14 | >0.14 | >0.14 | 1.45 | 1.45 | 1.45 | 1.15 | 1.15 | – | –
15 | Cc1c(/N=C/c2ccc(O)cc2)c(=O)n(-c2ccccc2)n1C | >0.16 | >0.16 | >0.16 | >0.16 | >0.16 | 1.69 | 1.39 | 1.39 | 1.39 | 1.39 | – | –
16 | Cc1c(/N=C/c2cccc([N+](=O)[O-])c2)c(=O)n(-c2ccccc2)n1C | >0.15 | >0.15 | >0.15 | >0.15 | >0.15 | 1.43 | 1.43 | 1.43 | 1.43 | 1.13 | – | –
17 | COc1cccc(/C=N/c2c(C)n(C)n(-c3ccccc3)c2=O)c1O | >0.15 | >0.15 | >0.15 | >0.15 | >0.15 | 1.13 | 1.43 | 1.43 | 1.13 | 1.13 | – | 89.1
18 | COc1ccc(/C=N/c2c(C)n(C)n(-c3ccccc3)c2=O)cc1 | >0.16 | >0.16 | >0.16 | >0.16 | >0.16 | 1.41 | 1.41 | 1.41 | 1.11 | 1.11 | – | –
